According to patent US12077503B2, “Substituted cyclic amides and their use as herbicides” (FMC CORPORATION, priority 2015, dated 2024):

What was measured:
Assay type in all cases: in vivo
[1] = system: Galium (catchweed bedstraw, Galium aparine); assay: Test A postemergence; conditions: Galium, post-emergence, 240 h, postemergence
How it was run: (§1)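 Ratings of 0 (no effect) to 100 (complete control) come from visual comparison with untreated controls roughly 10 d after treatment. Test chemicals, formulated in a non-phytotoxic solvent mixture with surfactant, were applied either as a preemergence directed soil spray on seeded soil or postemergence to one- to two-leaf plants 2 to 10 cm tall.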

Kochia (Kochia scoparia) [2] = assay: Test A postemergence; conditions: Bassia scoparia, post-emergence, 240 h, postemergence
How it was run: as §1

corn (Zea mays) = assay: Test A postemergence; conditions: Zea mays, post-emergence, 240 h, postemergence
How it was run: as §1

[3] = system: barnyardgrass (Echinochloa crus-galli); assay: Test A postemergence; conditions: Echinochloa crus-galli, post-emergence, 240 h, postemergence
How it was run: as §1

[4] = system: blackgrass (Alopecurus myosuroides); assay: Test A postemergence; conditions: Alopecurus myosuroides, post-emergence, 240 h, postemergence
How it was run: as §1

[5] = system: giant foxtail (Setaria faberii); assay: Test A postemergence; conditions: Setaria faberi, post-emergence, 240 h, postemergence
How it was run: as §1

[6] = system: pigweed (Amaranthus retroflexus); assay: Test A postemergence; conditions: Amaranthus retroflexus, post-emergence, 240 h, postemergence
How it was run: as §1

[7] = system: ragweed (common ragweed, Ambrosia elatior); assay: Test A postemergence; conditions: Ambrosia artemisiifolia, post-emergence, 240 h, postemergence
How it was run: as §1

[8] = system: wheat (Triticum aestivum); assay: Test A postemergence; conditions: Triticum aestivum, post-emergence, 240 h, 125 g ai/ha, postemergence, visual injury vs untreated controls after approx. 10 d; 0 = no effect, 100 = complete control; read-out: Wheat plant response rating (0 to 100 scale)
How it was run: as §1

[9] = system: ryegrass, Italian (Italian ryegrass, Lolium multiflorum); assay: Test A postemergence; conditions: Lolium multiflorum, post-emergence, 240 h, postemergence
How it was run: as §1

Kochia (Kochia scoparia) [10] = assay: Test A preemergence; conditions: Bassia scoparia, pre-emergence, 240 h, preemergence, 0 to 100 scale where 0 is no effect and 100 is complete control, read-out: Kochia plant response rating
How it was run: as §1

[11] = system: barnyardgrass (Echinochloa crus-galli); assay: Test A preemergence; conditions: Echinochloa crus-galli, pre-emergence, 240 h, preemergence, 0 to 100 scale where 0 is no effect and 100 is complete control, read-out: Barnyardgrass plant response rating
How it was run: as §1

[12] = system: giant foxtail (Setaria faberii); assay: Test A preemergence; conditions: Setaria faberi, pre-emergence, 240 h, preemergence, 0 to 100 scale where 0 is no effect and 100 is complete control, read-out: Foxtail, Giant plant response rating
How it was run: as §1

[13] = system: pigweed (Amaranthus retroflexus); assay: Test A preemergence; conditions: Amaranthus retroflexus, pre-emergence, 240 h, preemergence, 0 to 100 scale where 0 is no effect and 100 is complete control, read-out: Pigweed plant response rating
[14] = system: ragweed (common ragweed, Ambrosia elatior); assay: Test A preemergence; conditions: Ambrosia artemisiifolia, pre-emergence, 240 h, preemergence, 0 to 100 scale where 0 is no effect and 100 is complete control, read-out: Ragweed plant response rating
How it was run: as §1

[15] = system: ryegrass, Italian (Italian ryegrass, Lolium multiflorum); assay: Test A preemergence; conditions: Lolium multiflorum, pre-emergence, 240 h, preemergence, 0 to 100 scale where 0 is no effect and 100 is complete control, read-out: Ryegrass, Italian plant response rating
How it was run: as §1

[16] = 125 g ai/ha, visual injury rating, approximately 10 d

O=C1NC[C@H](c2ccc(C(F)(F)F)cc2)C1C(=O)Nc1c(F)cccc1CO (stereo partly shown) [Compound 1243]
0%: pest or weed control at 125 g/ha ([1]; 125 g ai/ha, visual injury vs untreated controls after approx. 10 d, 0 = no effect, 100 = complete control, read-out: Galium plant response rating (0 to 100 scale)) | pest or weed control at 500 g/ha ([1]; 500 g ai/ha, 0 to 100 scale, 0 is no effect, 100 is complete control, read-out: Galium plant response rating) | pest or weed control at 125 g/ha (Kochia (Kochia scoparia) [2]; 125 g ai/ha, visual injury vs untreated controls after approx. 10 d, 0 = no effect, 100 = complete control, read-out: Kochia plant response rating (0 to 100 scale)) | pest or weed control at 500 g/ha (Kochia (Kochia scoparia) [2]; 500 g ai/ha, 0 to 100 scale, 0 is no effect, 100 is complete control, read-out: Kochia plant response rating) | plant injury at 125 g/ha (corn (Zea mays); 125 g ai/ha, visual injury vs untreated controls after approx. 10 d, 0 = no effect, 100 = complete control, read-out: Corn plant response rating (0 to 100 scale)) | plant injury at 500 g/ha (corn (Zea mays); 500 g ai/ha, 0 to 100 scale, 0 is no effect, 100 is complete control, read-out: Corn plant response rating) | pest or weed control at 125 g/ha ([3]; 125 g ai/ha, visual injury vs untreated controls after approx. 10 d, 0 = no effect, 100 = complete control, read-out: Barnyardgrass plant response rating (0 to 100 scale)) | pest or weed control at 500 g/ha ([3]; 500 g ai/ha, 0 to 100 scale, 0 is no effect, 100 is complete control, read-out: Barnyardgrass plant response rating) | pest or weed control at 125 g/ha ([4]; 125 g ai/ha, visual injury vs untreated controls after approx. 10 d, 0 = no effect, 100 = complete control, read-out: Blackgrass plant response rating (0 to 100 scale)) | pest or weed control at 500 g/ha ([4]; 500 g ai/ha, 0 to 100 scale, 0 is no effect, 100 is complete control, read-out: Blackgrass plant response rating) | pest or weed control at 125 g/ha ([5]; 125 g ai/ha, visual injury vs untreated controls after approx. 10 d, 0 = no effect, 100 = complete control, read-out: Foxtail, Giant plant response rating (0 to 100 scale)) | pest or weed control at 500 g/ha ([5]; 500 g ai/ha, 0 to 100 scale, 0 is no effect, 100 is complete control, read-out: Foxtail, Giant plant response rating) | pest or weed control at 125 g/ha ([6]; 125 g ai/ha, visual injury vs untreated controls after approx. 10 d, 0 = no effect, 100 = complete control, read-out: Pigweed plant response rating (0 to 100 scale)) | pest or weed control at 500 g/ha ([6]; 500 g ai/ha, 0 to 100 scale, 0 is no effect, 100 is complete control, read-out: Pigweed plant response rating) | pest or weed control at 125 g/ha ([7]; 125 g ai/ha, visual injury vs untreated controls after approx. 10 d, 0 = no effect, 100 = complete control, read-out: Ragweed plant response rating (0 to 100 scale)) | pest or weed control at 500 g/ha ([7]; 500 g ai/ha, 0 to 100 scale, 0 is no effect, 100 is complete control, read-out: Ragweed plant response rating) | plant injury at 125 g/ha [8] | pest or weed control at 125 g/ha ([9]; 125 g ai/ha, visual injury vs untreated controls after approx. 10 d, 0 = no effect, 100 = complete control, read-out: Ryegrass, Italian plant response rating (0 to 100 scale)) | pest or weed control at 500 g/ha ([9]; 500 g ai/ha, 0 to 100 scale, 0 is no effect, 100 is complete control, read-out: Ryegrass, Italian plant response rating) | pest or weed control at 125 g/ha (Kochia (Kochia scoparia) [10]; [16]) | pest or weed control at 500 g/ha (Kochia (Kochia scoparia) [10]; 500 g ai/ha) | pest or weed control at 125 g/ha [11, 16] | pest or weed control at 500 g/ha ([11]; 500 g ai/ha) | pest or weed control at 125 g/ha [12, 16] | pest or weed control at 500 g/ha ([12]; 500 g ai/ha) | pest or weed control at 125 g/ha [13, 16] | pest or weed control at 500 g/ha ([13]; 500 g ai/ha) | pest or weed control at 125 g/ha [14, 16] | pest or weed control at 500 g/ha ([14]; 500 g ai/ha) | pest or weed control at 125 g/ha [15, 16] | pest or weed control at 500 g/ha ([15]; 500 g ai/ha)
